Experimental data published in paper PMC5645029 (Journal of medicinal chemistry, 2017).
Blank lines part the entries; values can stand above or below the molecule they belong to. Non-standard residues stand in square brackets, D forms with d. Residues, ends and D or L forms follow the SMILES beside them.

Legend:
mMC5R [1] = molecular target: T1, mMC5R (Mus musculus, UniProt P41149); experiment: cell-based
mMC1R = mMC1R (Mus musculus, UniProt Q01727); experiment: AlphaScreen cAMP assay, agonist activity; conditions: up to 100 μM concentrations
mMC3R = mMC3R (Mus musculus, UniProt P33033); experiment: AlphaScreen cAMP assay, agonist activity; conditions: up to 100 μM concentrations
mMC4R [2] = molecular target: T2, mMC4R (Mus musculus, UniProt P56450); experiment: AlphaScreen cAMP assay, agonist activity; conditions: up to 100 μM concentrations
mMC5R [3] = molecular target: T1, mMC5R
mMC4R [4] = molecular target: T2, mMC4R; conditions: antagonist potency relative to 1
[5] = molecular target: mouse melanocortin-1 receptor (mouse) (UniProt Q01727)
[6] = molecular target: mouse melanocortin-3 receptor (mouse) (UniProt P33033)
[7] = molecular target: mouse melanocortin-4 receptor (mouse) (UniProt P56450)
Chain of mouse melanocortin-4 receptor (mouse) (P56450 whole entry): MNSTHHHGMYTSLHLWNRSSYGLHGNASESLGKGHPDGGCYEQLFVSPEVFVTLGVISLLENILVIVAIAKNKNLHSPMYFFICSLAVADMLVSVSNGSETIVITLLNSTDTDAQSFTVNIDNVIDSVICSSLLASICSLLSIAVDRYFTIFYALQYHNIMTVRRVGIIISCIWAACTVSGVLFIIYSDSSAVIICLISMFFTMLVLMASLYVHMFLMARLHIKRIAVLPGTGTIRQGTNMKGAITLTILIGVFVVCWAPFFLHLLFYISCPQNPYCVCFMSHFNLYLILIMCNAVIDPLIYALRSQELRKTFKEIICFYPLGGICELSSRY

Chain of mouse melanocortin-1 receptor (mouse) (Q01727 whole entry): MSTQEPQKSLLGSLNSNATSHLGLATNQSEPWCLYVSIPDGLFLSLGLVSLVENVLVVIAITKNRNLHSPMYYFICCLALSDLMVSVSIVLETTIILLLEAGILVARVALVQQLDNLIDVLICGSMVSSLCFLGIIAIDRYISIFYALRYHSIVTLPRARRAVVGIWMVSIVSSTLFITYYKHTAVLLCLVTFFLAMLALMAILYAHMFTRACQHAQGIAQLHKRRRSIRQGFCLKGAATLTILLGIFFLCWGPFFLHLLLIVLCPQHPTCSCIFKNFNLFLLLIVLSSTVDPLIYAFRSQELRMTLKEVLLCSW
Chain of mMC1R (Q01727 whole entry): as above
T2 sequence (P56450 whole entry): as the sequence (P56450 whole entry) above
T1 sequence (P41149 whole entry): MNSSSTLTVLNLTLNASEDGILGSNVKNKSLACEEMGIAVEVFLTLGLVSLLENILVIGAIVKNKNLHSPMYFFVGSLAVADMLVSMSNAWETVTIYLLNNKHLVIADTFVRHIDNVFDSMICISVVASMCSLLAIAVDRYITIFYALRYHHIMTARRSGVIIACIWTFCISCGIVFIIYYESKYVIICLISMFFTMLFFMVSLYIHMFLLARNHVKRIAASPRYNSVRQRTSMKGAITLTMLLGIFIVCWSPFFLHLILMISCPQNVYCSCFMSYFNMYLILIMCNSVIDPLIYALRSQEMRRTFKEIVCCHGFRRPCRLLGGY
Chain of mouse melanocortin-3 receptor (mouse) (P33033 whole entry): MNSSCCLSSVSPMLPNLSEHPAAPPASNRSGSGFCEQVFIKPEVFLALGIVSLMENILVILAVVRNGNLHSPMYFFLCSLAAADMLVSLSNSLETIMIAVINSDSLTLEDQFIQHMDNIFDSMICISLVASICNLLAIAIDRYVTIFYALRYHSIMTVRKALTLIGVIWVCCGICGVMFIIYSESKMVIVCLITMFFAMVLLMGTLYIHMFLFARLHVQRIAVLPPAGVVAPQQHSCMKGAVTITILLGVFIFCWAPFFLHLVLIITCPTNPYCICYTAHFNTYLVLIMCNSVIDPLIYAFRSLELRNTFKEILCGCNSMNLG
Chain of mMC3R (P33033 whole entry): as above

Molecule: C[C@@H]1NC(=O)[C@@H](CN)NC(=O)[C@H](Cc2ccccc2)NC(=O)[C@H](Cc2ccccc2)NC(=O)[C@H](CCCNC(=N)N)NC(=O)[C@@H]2CCCN2C(=O)[C@H]2CCCN2C(=O)[C@H](Cc2ccccc2)NC1=O [Peptide 9, c[Pro-Arg-Phe-Phe-DDap-Ala-Phe-DPro]]
EC50 (mMC5R [1]): 110 nM | agonist activity at the MC1R (in words) (mMC1R): no agonist activity | agonist activity at the MC3R (in words) (mMC3R): no agonist activity | agonist activity at the MC4R (in words) (mMC4R [2]): no agonist activity

Molecule: C[C@@H]1NC(=O)[C@H](Cc2c[nH]cn2)NC(=O)[C@H](Cc2ccccc2)NC(=O)[C@H](Cc2ccccc2)NC(=O)[C@H](CCCNC(=N)N)NC(=O)[C@@H]2CCCN2C(=O)[C@H]2CCCN2C(=O)[C@H](Cc2ccccc2)NC1=O [Peptide 10, c[Pro-Arg-Phe-Phe-His-Ala-Phe-DPro]]
mMC5R inverse agonist, percent decrease from basal (mMC5R [3]): 10% | EC50 (mMC5R [1]): 10 nM | agonist activity at the MC1R (in words) (mMC1R): no agonist activity | agonist activity at the MC3R (in words) (mMC3R): no agonist activity | agonist activity at the MC4R (in words) (mMC4R [2]): no agonist activity

Molecule: CC(C)C[C@@H]1NC(=O)[C@H](Cc2ccccc2)NC(=O)[C@H](Cc2ccccc2)NC(=O)[C@H](CCCNC(=N)N)NC(=O)[C@@H]2CCCN2C(=O)[C@H]2CCCN2C(=O)[C@H](Cc2ccccc2)NC(=O)[C@H](C)NC1=O [Peptide 12, c[Pro-Arg-Phe-Phe-Leu-Ala-Phe-DPro]] (cyclo(RFFLAF[dP]P))
fold less potent at the MC4R compared to 1 (mMC4R [4]): at least 8 fold | EC50 (mMC5R [1]): 110 nM

Molecule: C[C@@H]1NC(=O)[C@H](Cc2c[nH]c3ccccc23)NC(=O)[C@H](Cc2ccccc2)NC(=O)[C@H](Cc2ccccc2)NC(=O)[C@H](CCCNC(=N)N)NC(=O)[C@@H]2CCCN2C(=O)[C@H]2CCCN2C(=O)[C@H](Cc2ccccc2)NC1=O [Peptide 15, c[Pro-Arg-Phe-Phe-Trp-Ala-Phe-DPro]] (cyclo(RFFWAF[dP]P))
EC50 (mMC5R [1]): 150 nM

Molecule: C[C@@H]1NC(=O)[C@H](Cc2ccccc2)NC(=O)[C@H](Cc2ccccc2)NC(=O)[C@H](Cc2ccccc2)NC(=O)[C@H](CCCNC(=N)N)NC(=O)[C@@H]2CCCN2C(=O)[C@H]2CCCN2C(=O)[C@H](Cc2ccccc2)NC1=O [Peptide 14, c[Pro-Arg-Phe-Phe-Phe-Ala-Phe-DPro]]
activity at the MC5R (in words) (mMC5R [3]): no activity

Molecule: N=C(N)NCCC[C@@H]1NC(=O)[C@@H]2CCCN2C(=O)[C@H]2CCCN2C(=O)[C@H](Cc2ccccc2)NC(=O)[C@H](CCCCN)NC(=O)[C@H](CC(N)=O)NC(=O)[C@H](Cc2ccccc2)NC(=O)[C@H](Cc2ccccc2)NC1=O [Peptide 18, c[Pro-Arg-Phe-Phe-Asn-Lys-Phe-DPro]]
activity at the MC5R (in words) (mMC5R [3]): partially stimulated

Molecule: C[C@@H]1NC(=O)[C@H](CO)NC(=O)[C@H](Cc2ccccc2)NC(=O)[C@H](Cc2ccccc2)NC(=O)[C@H](CCCNC(=N)N)NC(=O)[C@@H]2CCCN2C(=O)[C@H]2CCCN2C(=O)[C@H](Cc2ccccc2)NC1=O [Peptide 5, c[Pro-Arg-Phe-Phe-Ser-Ala-Phe-DPro]]
EC50 (mMC5R [1]): 140 nM | agonist activity at the MC1R (in words) (mMC1R): No agonist activity | agonist activity at the MC3R (in words) (mMC3R): No agonist activity | agonist activity at the MC4R (in words) (mMC4R [2]): No agonist activity

Molecule: CC(C)[C@@H]1NC(=O)[C@H](Cc2ccccc2)NC(=O)[C@H](Cc2ccccc2)NC(=O)[C@H](CCCNC(=N)N)NC(=O)[C@@H]2CCCN2C(=O)[C@H]2CCCN2C(=O)[C@H](Cc2ccccc2)NC(=O)[C@H](C)NC1=O [Peptide 13, c[Pro-Arg-Phe-Phe-Val-Ala-Phe-DPro]]
fold less potent at the MC4R compared to 1 (mMC4R [4]): at least 8 fold | EC50 (mMC5R [1]): 510 nM

The next lines start with the values.

activity at the MC5R (in words) (mMC5R [3]): no activity
Molecule: CC(C)C[C@@H]1NC(=O)[C@H](CC(N)=O)NC(=O)[C@H](Cc2ccccc2)NC(=O)[C@H](Cc2ccccc2)NC(=O)[C@H](CCCNC(=N)N)NC(=O)[C@@H]2CCCN2C(=O)[C@H]2CCCN2C(=O)[C@H](Cc2ccccc2)NC1=O [Peptide 22, c[Pro-Arg-Phe-Phe-Asn-Leu-Phe-DPro]]

agonist activity at the MC1R (in words) (mMC1R): did not possess agonist activity | agonist activity at the MC3R (in words) (mMC3R): did not possess agonist activity | agonist activity at the MC4R (in words) (mMC4R [2]): did not possess agonist activity
Molecule: N=C(N)NCCC[C@@H]1NC(=O)[C@@H]2CCCN2C(=O)[C@H]2CCCN2C(=O)[C@H](Cc2ccccc2)NC(=O)[C@H](CO)NC(=O)[C@H](CC(N)=O)NC(=O)[C@H](Cc2ccccc2)NC(=O)[C@H](Cc2ccccc2)NC1=O [Peptide 21, c[Pro-Arg-Phe-Phe-Asn-Ser-Phe-DPro]] (cyclo(RFFNSF[dP]P))

activity at the MC5R (in words) (mMC5R [3]): partially stimulated
Molecule: N=C(N)NCCC[C@@H]1NC(=O)[C@@H]2CCCN2C(=O)[C@H]2CCCN2C(=O)[C@H](Cc2ccccc2)NC(=O)[C@H](Cc2ccccc2)NC(=O)[C@H](CC(N)=O)NC(=O)[C@H](Cc2ccccc2)NC(=O)[C@H](Cc2ccccc2)NC1=O [Peptide 20, c[Pro-Arg-Phe-Phe-Asn-Phe-Phe-DPro]]

agonist activity at the MC1R (in words) (mMC1R): no agonist activity
Molecule: C[C@@H]1NC(=O)[C@H](CC(N)=O)NC(=O)[C@H](Cc2ccccc2)NC(=O)[C@H](Cc2ccccc2)NC(=O)[C@H](CCCNC(=N)N)NC(=O)[C@@H]2CCCN2C(=O)[C@H]2CCCN2C(=O)[C@H](C)NC1=O [Peptide 24, c[Pro-Arg-Phe-Phe-Asn-Ala-Ala-DPro]] (cyclo(RFFNAA[dP]P))

agonist EC50 (cAMP AlphaScreen, HEK293 cells stably expressing the receptor) [5]: > 100 µM | agonist EC50 (cAMP AlphaScreen, HEK293 cells stably expressing the receptor) [6]: > 100 µM | agonist EC50 (cAMP AlphaScreen, HEK293 cells stably expressing the receptor) [7]: > 100 µM
B1: c[Pro-Arg-Phe-Phe-His-Ala-Phe-DPro] (peptide)
peptide: cyclo(PRFFHAF[dP])
SMILES: C[C@@H]1NC(=O)[C@H](Cc2c[nH]cn2)NC(=O)[C@H](Cc2ccccc2)NC(=O)[C@H](Cc2ccccc2)NC(=O)[C@H](CCCNC(=N)N)NC(=O)[C@@H]2CCCN2C(=O)[C@H]2CCCN2C(=O)[C@H](Cc2ccccc2)NC1=O

agonist EC50 (cAMP AlphaScreen, HEK293 cells stably expressing the receptor) [5]: > 100 µM | agonist EC50 (cAMP AlphaScreen, HEK293 cells stably expressing the receptor) [6]: > 100 µM | agonist EC50 (cAMP AlphaScreen, HEK293 cells stably expressing the receptor) [7]: > 100 µM
B2: c[Pro-Arg-Phe-Phe-Asp-Ala-Phe-DPro] (peptide)
peptide: cyclo(PRFFDAF[dP])

agonist EC50 (cAMP AlphaScreen, HEK293 cells stably expressing the receptor) [5]: 20.5 µM | agonist EC50 (cAMP AlphaScreen, HEK293 cells stably expressing the receptor) [6]: > 100 µM | agonist EC50 (cAMP AlphaScreen, HEK293 cells stably expressing the receptor) [7]: > 100 µM
B3: c[Pro-Arg-Phe-Phe-Glu-Ala-Phe-DPro] (peptide)
peptide: cyclo(PRFFEAF[dP])

agonist EC50 (cAMP AlphaScreen, HEK293 cells stably expressing the receptor) [5]: > 100 µM | agonist EC50 (cAMP AlphaScreen, HEK293 cells stably expressing the receptor) [6]: > 100 µM | agonist EC50 (cAMP AlphaScreen, HEK293 cells stably expressing the receptor) [7]: > 100 µM
B4: c[Pro-Arg-Phe-Phe-Thr-Ala-Phe-DPro] (peptide)
peptide: cyclo(PRFFTAF[dP])
SMILES: C[C@@H]1NC(=O)[C@H]([C@@H](C)O)NC(=O)[C@H](Cc2ccccc2)NC(=O)[C@H](Cc2ccccc2)NC(=O)[C@H](CCCNC(=N)N)NC(=O)[C@@H]2CCCN2C(=O)[C@H]2CCCN2C(=O)[C@H](Cc2ccccc2)NC1=O

agonist EC50 (cAMP AlphaScreen, HEK293 cells stably expressing the receptor) [5]: > 100 µM | agonist EC50 (cAMP AlphaScreen, HEK293 cells stably expressing the receptor) [6]: > 100 µM | agonist EC50 (cAMP AlphaScreen, HEK293 cells stably expressing the receptor) [7]: > 100 µM
B5: c[Pro-Arg-Phe-Phe-Leu-Ala-Phe-DPro] (peptide)
peptide: cyclo(PRFFLAF[dP])
SMILES: CC(C)C[C@@H]1NC(=O)[C@H](Cc2ccccc2)NC(=O)[C@H](Cc2ccccc2)NC(=O)[C@H](CCCNC(=N)N)NC(=O)[C@@H]2CCCN2C(=O)[C@H]2CCCN2C(=O)[C@H](Cc2ccccc2)NC(=O)[C@H](C)NC1=O
